Like-named read-outs stand apart in the source and are kept apart here.
How the values were obtained:
[1] = target: HIV-1 reverse transcriptase (HIV-RT enzyme) (Human immunodeficiency virus type 1 group M subtype B, UniProt P03366); assay: HIV-1 Reverse Transcriptase Assay Inhibitor IC50 Determination (RNA-dependent DNA polymerase activity, SPA); assay type: biochemical
Description: HIV-1 Reverse Transcriptase Assay Inhibitor IC50 Determination
RNA-dependent DNA polymerase activity was measured using a biotinylated primer oligonucleotide and tritiated dNTP substrate. Newly synthesized DNA was quantified by capturing the biotinylated primer molecules on streptavidin coated Scintillation Proximity Assay (SPA) beads (Amersham). The sequences of the polymerase assay substrate were: 18 nt DNA primer, 5′-Biotin/GTC CCT GTT CGG GCG CCA-3′; 47 nt RNA template, 5′-GGGUCUCUCUGGUUAGACCACUCUAGCAGUGGCGCCCGAACAGGGAC-3′. The biotinylated DNA primer was obtained from the Integrated DNA Technologies Inc. and the RNA template was synthesized by Dharmacon. The DNA polymerase assay (final volume 50 μl) contained 32 nM biotinylated DNA primer, 64 nM RNA substrate, dGTP, dCTP, dTTP (each at 5 μM), 103 nM [^3H]-dATP (specific activity=[…]), in 45 mM Tris-HCl, pH 8.0, 45 mM NaCl, 2.7 mM Mg(CH3COO)2, 0.045% Triton X-100 w/v, 0.9 mM EDTA. The reactions contained 5 μl of serial compound dilutions in 100% DMSO for IC50 determination and the final concentrations of DMSO were 10%. Reactions were initiated by the addition of […] of the HIV-RT enzyme (final concentrations of 1-3 nM). Protein concentrations were adjusted to provide linear product formation for at least 30 min of incubation. After incubation at 30° for 30 min, the reaction was quenched by addition of 50 μl of 200 mM EDTA (pH 8.0) and 2 mg/ml SA-PVT SPA beads (Amersham, RPNQ0009, reconstituted in 20 mM Tris-HCl, pH 8.0, 100 mM EDTA and 1% BSA). The beads were left to settle overnight and the SPA signals were counted in a 96-well top counter-NXT (Packard). IC50 values were obtained by sigmoidal regression analysis using GraphPad Prism 3.0 (GraphPad Software, Inc.).

[2] = test system: wild-type laboratory strain HIV-1HXB2; assay: Recombinant HIV-1 Antiviral Assay (MTT cell viability assay with MT-4 cells); assay type: cell-based; details: Human immunodeficiency virus 1, MT4, 120 h
Description: Recombinant HIV-1 Antiviral Assay
The sensitivity of a wild-type laboratory strain HIV-1HXB2 to described compounds was determined by the 3-[4,5-dimethylthiazol-2yl]-2,5-diphenyltetrazolium bromide (MTT) cell viability assay with MT-4 cells (R. Pauwels et al., “Rapid and automated tetrazolium-based colorimetric assay for the detection of anti-HIV compounds,” J. Virological Methods 1988 20:309-321). Briefly, MT-4 cells were incubated with virus (MOI 0.0001) for 1 h at 37° C. and then resuspended at 7.5×10^5/mL in RPMI 1640 (with out phenol) (Gibco) with 10% FCS and antibiotics and plated out onto a 96 well plate (Corning Costar, USA). After 5 days incubation 20 μL of MTT (Sigma-Aldrich) (5 mg/mL in PBS) was added and the plates were incubated for 2 h before the addition of 170 μL of acidified IPA. The absorbance was measured at 540 nm and the TCID50 determined by Spearman-Karber method.

[3] = MT-4 cells infected with HIV-1HXB2, MTT readout after 5 days, read-out: Antiviral Activity IC50
[4] = SPA polymerase assay, 30 min at 30°, read-out: HIVRT inhibition IC50

Row | SMILES | IC50 [1] | IC50 [2, 3] | IC50 [1, 4] | other results
1 | Cc1cc(C#N)cc(C)c1Oc1ccnc(NC2CCN(Cc3ccc(S(C)(=O)=O)cc3)CC2)n1 [I-3, 4-{2-[1-(4-Methanesulfonyl-benzyl)-piperidin-4-ylamino]-pyrimidin-4-yloxy}-3,5-dimethyl-benzonitrile] | 34.1 nM | 0.003 µM | – | –
2 | Cc1cc(C#N)cc(C)c1Oc1ccnc(NC2CCN(c3cccc(S(N)(=O)=O)c3)CC2)n1 [IV-3] | 14.7 nM | 0.0004 µM | – | –
3 | Cc1cc(C#N)cc(C)c1Oc1ccnc(NC2CCN(c3cc(Cl)cc(C#N)c3)CC2)n1 [IV-23] | – | – | 37.7 nM | –
4 | Cc1cc(C#N)cc(C)c1Nc1ccnc(NC2CCN(Cc3ccc(S(C)(=O)=O)cc3Cl)CC2)n1 [III-1, 4-{2-[1-(2-Chloro-4-methanesulfonyl-benzyl)-piperidin-4-ylamino]-pyrimidin-4-ylamino}-3,5-dimethyl-benzonitrile] | 25.7 nM | 0.0022 µM | – | –
5 | Cc1cc(C#N)cc(C)c1Oc1ccnc(NC2CCN(Cc3ccccc3)CC2)n1 [I-1, 4-[2-(1-Benzyl-piperidin-4-ylamino)-pyrimidin-4-yloxy]-3,5-dimethyl-benzonitrile] | – | – | – | melting point: 162 to 163.3 °C
6 | Cc1cc(C#N)cc(C)c1Nc1nc(NC2CCN(c3cccc(C(N)=O)c3)CC2)ncc1Br [V-5] | 28.1 nM | 0.0015 µM | – | –
7 | Cc1cc(C#N)cc(C)c1Nc1nc(NC2CCN(c3cccc(C#N)c3)CC2)ncc1Br [V-3] | – | – | 40 nM | –
8 | Cc1cc(C#N)cc(Cl)c1Oc1nc(NC2CCN(c3cccc(C(N)=O)c3)CC2)ncc1Br [IV-13] | 27.9 nM | 0.0058 µM | – | –
9 | Cc1cc(C#N)cc(C)c1Oc1nc(NC2CCN(Cc3ccccc3)CC2)ncc1Br [I-2, 4-[2-(1-Benzyl-piperidin-4-ylamino)-5-bromo-pyrimidin-4-yloxy]-3,5-dimethyl-benzonitrile] | – | – | – | melting point: 158 to 159.8 °C
10 | Cc1cc(C#N)cc(C)c1Oc1nc(NC2CCN(Cc3ccc(S(N)(=O)=O)cc3Cl)CC2)nc(N)c1Br [II-1] | – | – | 105 nM | IC50 ([2]; read-out: Antiviral Activity IC50(μM)): 0.0086 µM
